Common to all, as to format: biochemical
For one assay, the target named is T1, JAK1 (Homo sapiens, UniProt P23458).
T1 construct: JAK1 (aa 850-1154) and TYK2 (aa 871-1187) are expressed with an N-terminally fused GST-tag; GST (N); purchased Carna Bioscience, Inc; host or cells: baculovirus expression system
Description: In vitro enzyme assay (cell-free HTRF kinase assay), JAK1. To be noted: catalytic domain aa 850-1154, GST-tag; ATP 60 μM, SRCtide 400 nM, reaction 120 min. On the procedure: (§1) Kinase buffer [50 mM HEPES (pH 7.5), 1 mM EGTA, 10 mM MgCl2, 2 mM DTT and 0.01% Tween-20) was prepared and dilutions of a compound of formula (I) and other reagents were subsequently made in it. Two times concentrated compound of formula (I) solution: A compound of formula (I) was diluted to 100-fold final concentration in DMSO, followed by 50-fold dilution with Kinase buffer (1% DMSO final concentration). Four times concentrated Substrate/ATP mix solution: Biotin-SRCtide and ATP were diluted to 4-fold final concentration in Kinase buffer. Biotin-SRCtide solution (purchased from Anaspec) was mixed with ATP solution (1:1). Four times concentrated Enzyme solution: JAK1 or JAK2 or JAK3 or TYK2 enzyme [Human baculo virus expressed JAK1, JAK2, JAK3 and TYK2 were purchased from Carna Bioscience, Inc. All enzymes only contain the catalytic domain. JAK1 (aa 850-1154) and TYK2 (aa 871-1187) are expressed with an N-terminally fused GST-tag, and JAK2 and JAK3 with an N-terminally fused His-tag] was diluted to 4-fold final concentration in Kinase buffer and always kept on ice. Detection buffer: LANCE detection buffer (10 times concentrated) was diluted 10-fold in H2O. Four times concentrated stop solution: EDTA was diluted to a concentration of 40 mM in detection buffer. Four times concentrated ULight/Eu-antibody (from Perkin Elmer) mix solution: ULight-Streptavidin was diluted to a concentration of 100 nM (25 ng/mL final concentrations) and Eu-anti-phospho-Tyrosine (PT66) (from Perkin Elmer) was diluted to a concentration of 8 nM (2 ng/mL final concentration) in detection buffer.
(§2) Cell-free in vitro kinase assay was performed in 384 well plates. Two times concentrated compound solution (5 μL) was pipetted into a HTS 384SV Small Volume Plate. Four times concentrated Substrate/ATP mix (2.5 μL) solution was added along with 4 times concentrated Enzyme solution (2.5 μL). Plate was covered with TopSeal-A and incubated at room temperature for indicated time (Table 3). Four times concentrated Stop solution (5 μL, 10 mM final concentration) was added and incubated for 5 minutes at room temperature. Four times concentrated ULight/Eu-antibody mix solution (5 μL) was added and again plate was covered with TopSeal and incubated overnight at 4° C. TopSeal was removed and HTRF signal was measured at 615 nm and […] (excitation at 320 or 340 nm) on Tecan M1000 Multi mode plate reader. Ratio (665 nm/615 nm)×10^4 was calculated and IC50 values were deduced from Graph-pad prism 4.2.
(In general: Time-resolved FRET reads energy transfer from a long-lived donor to a nearby acceptor.)

The target in the next assay is T2, JAK2 (Homo sapiens, UniProt O60674).
T2 construct: All enzymes only contain the catalytic domain; His (N); purchased Carna Bioscience, Inc; host or cells: baculovirus expression system
Description: In vitro enzyme assay (cell-free HTRF kinase assay), JAK2. Particulars: catalytic domain, His-tag; ATP 10 μM, SRCtide 25 nM, reaction 30 min. The protocol:
as §1, §2

The target of the next assay is T3, JAK3 (Homo sapiens, UniProt P52333).
T3 construct: All enzymes only contain the catalytic domain; His (N); purchased Carna Bioscience, Inc; host or cells: baculovirus expression system
Description: In vitro enzyme assay (cell-free HTRF kinase assay), JAK3. Particulars: catalytic domain, His-tag; ATP 3 μM, SRCtide 100 nM, reaction 30 min. The protocol:
as §1, §2

Some results are limits rather than exact numbers.

T2 sequence (O60674 849-1124 limits assumed): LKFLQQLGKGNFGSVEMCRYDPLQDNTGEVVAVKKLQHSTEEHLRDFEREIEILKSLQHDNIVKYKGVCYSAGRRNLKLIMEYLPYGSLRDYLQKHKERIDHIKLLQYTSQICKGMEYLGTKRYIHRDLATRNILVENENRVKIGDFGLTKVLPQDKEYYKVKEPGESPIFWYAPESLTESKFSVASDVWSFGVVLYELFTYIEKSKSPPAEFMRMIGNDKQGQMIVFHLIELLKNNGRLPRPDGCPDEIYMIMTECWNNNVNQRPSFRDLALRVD
T3 sequence (P52333 822-1111 limits assumed): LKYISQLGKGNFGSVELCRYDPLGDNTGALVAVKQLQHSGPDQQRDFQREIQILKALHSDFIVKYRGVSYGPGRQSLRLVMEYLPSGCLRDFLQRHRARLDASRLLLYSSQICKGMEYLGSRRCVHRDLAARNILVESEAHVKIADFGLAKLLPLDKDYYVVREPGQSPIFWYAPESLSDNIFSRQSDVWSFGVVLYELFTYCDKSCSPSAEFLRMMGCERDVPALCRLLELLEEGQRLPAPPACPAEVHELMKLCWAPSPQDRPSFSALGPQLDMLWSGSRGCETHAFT
T1 sequence (P23458 850-1154): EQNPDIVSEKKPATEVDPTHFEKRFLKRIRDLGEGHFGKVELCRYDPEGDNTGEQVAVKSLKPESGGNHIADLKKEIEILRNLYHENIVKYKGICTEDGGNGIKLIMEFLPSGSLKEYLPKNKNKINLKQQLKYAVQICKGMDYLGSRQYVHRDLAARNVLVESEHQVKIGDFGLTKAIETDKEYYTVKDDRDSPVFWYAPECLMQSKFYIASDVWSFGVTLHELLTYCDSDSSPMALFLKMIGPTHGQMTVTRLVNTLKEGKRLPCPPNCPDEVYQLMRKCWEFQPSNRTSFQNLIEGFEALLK

Consider `O=C(O)CNC(=O)c1cc(Cl)c(C(=O)c2c[nH]c3c(NC(=O)C4CC4)nccc23)c(Cl)c1` [Compound No. 36, N-[3,5-Dichloro-4-({7-[(cyclopropylcarbonyl)amino]-1H-pyrrolo[2,3-c]pyridin-3-yl}carbonyl)benzoyl]glycine], for which the figures for the IC50 at JAK1, against JAK2 and against JAK3 were under 0.5 µM, under 0.1 µM and under 0.05 µM, respectively.
The like results for `N#Cc1cc(Cl)c(C(=O)c2c[nH]c3c(NC(=O)C4CC4)nccc23)c(Cl)c1` [Compound No. 39, N-[3-(2,6-Dichloro-4-cyanobenzoyl)-1H-pyrrolo[2,3-c]pyridin-7-yl]cyclopropanecarboxamide] were, in that order, under 0.5 µM, under 0.05 µM and under 0.05 µM.
For `CC(=O)Nc1nccc2c(C(=O)c3c(Cl)cc(C(=O)NCCN4CCCCC4)cc3Cl)c[nH]c12` [Compound No. 42, 4-{[7-(Acetylamino)-1H-pyrrolo[2,3-c]pyridin-3-yl]carbonyl}-3,5-dichloro-N-[2-(piperidin-1-yl)ethyl]benzamide] the same measures were under 1 µM, under 1 µM and under 1 µM.
With `CC(=O)Nc1nccc2c(C(=O)c3c(Cl)cc(C(=O)NCCN4CCCC4)cc3Cl)c[nH]c12` [Compound No. 44, 4-{[7-(Acetylamino)-1H-pyrrolo[2,3-c]pyridin-3-yl]carbonyl}-3,5-dichloro-N-[2-(pyrrolidin-1-yl)ethyl]benzamide], the IC50 on JAK1, at JAK2 and on JAK3 was under 1 µM each time.
As to `O=C(c1c(Cl)cc(-c2cncnc2)cc1Cl)c1c[nH]c2c(NC(=O)C3CC3)nccc12` [Compound No. 47, N-{3-[2,6-Dichloro-4-(pyrimidin-5-yl)benzoyl]-1H-pyrrolo[2,3-c]pyridin-7-yl}cyclopropanecarboxamide], the concentration for half-maximal inhibition (IC50) against JAK1 is under 1 µM; against JAK2 it was under 0.1 µM; against JAK3, under 0.1 µM.
For the compound `N#Cc1cc(F)c(C(=O)c2c[nH]c3c(NC(=O)C4CC4)nccc23)c(F)c1` [Compound No. 51, N-[3-(4-Cyano-2,6-difluorobenzoyl)-1H-pyrrolo[2,3-c]pyridin-7-yl]cyclopropanecarboxamide], the 50% inhibitory concentration (IC50) against JAK1 is under 0.5 µM; against JAK2 it was under 0.1 µM; against JAK3, under 0.05 µM.
The like results for `O=C(NC1CC1)c1cc(Cl)c(C(=O)c2c[nH]c3c(NC(=O)C4CC4)nccc23)c(Cl)c1` [Compound No. 54, 3,5-Dichloro-N-cyclopropyl-4-({7-[(cyclopropylcarbonyl)amino]-1H-pyrrolo[2,3-c]pyridin-3-yl}carbonyl)benzamide] were, in that order, under 0.5 µM, under 0.5 µM and under 0.5 µM.
For `O=C(NCC1CC1)c1cc(Cl)c(C(=O)c2c[nH]c3c(NC(=O)C4CC4)nccc23)c(Cl)c1` [Compound No. 55, 3,5-Dichloro-4-({7-[(cyclopropylcarbonyl)amino]-1H-pyrrolo[2,3-c]pyridin-3-yl}carbonyl)-N-(cyclopropylmethyl)benzamide] the same measures were under 0.5 µM, under 0.5 µM and under 0.5 µM.
For `CCOCCCNC(=O)c1cc(Cl)c(C(=O)c2c[nH]c3c(NC(=O)C4CC4)nccc23)c(Cl)c1` [Compound No. 56, 3,5-Dichloro-4-({7-[(cyclopropylcarbonyl)amino]-1H-pyrrolo[2,3-c]pyridin-3-yl}carbonyl)-N-(3-ethoxypropyl)benzamide] the same measures were under 0.5 µM, under 0.5 µM and under 0.5 µM.
Consider `O=C(c1c(Cl)cc(CO)cc1Cl)c1c[nH]c2c(NC(=O)C3CC3)nccc12` [Compound No. 58, N-{3-[2,6-Dichloro-4-(hydroxymethyl)benzoyl]-1H-pyrrolo[2,3-c]pyridin-7-yl}cyclopropanecarboxamide], for which the IC50 at JAK1, against JAK2 and against JAK3 was under 1 µM throughout.
As for `O=C(NCCF)c1cc(F)c(C(=O)c2c[nH]c3c(NC(=O)C4CC4)nccc23)c(F)c1` [Compound No. 59, 4-({7-[(Cyclopropylcarbonyl)amino]-1H-pyrrolo[2,3-c]pyridin-3-yl}carbonyl)-3,5-difluoro-N-(2-fluoroethyl)benzamide], the IC50 against JAK1, against JAK2 and against JAK3 was under 0.5 µM in each case.
Turning to `CCNC(=O)c1cc(F)c(C(=O)c2c[nH]c3c(NC(=O)C4CC4)nccc23)c(F)c1` [Compound No. 60, 4-({7-[(Cyclopropylcarbonyl)amino]-1H-pyrrolo[2,3-c]pyridin-3-yl}carbonyl)-N-ethyl-3,5-difluorobenzamide], the results for the IC50 against JAK1, at JAK2 and against JAK3 were under 0.5 µM, under 1 µM and under 0.5 µM, respectively.
`CNC(=O)c1cc(F)c(C(=O)c2c[nH]c3c(NC(=O)C4CC4)nccc23)c(F)c1` [Compound No. 61, 4-({7-[(Cyclopropylcarbonyl)amino]-1H-pyrrolo[2,3-c]pyridin-3-yl}carbonyl)-3,5-difluoro-N-methylbenzamide]: the half-maximal inhibitory concentration (IC50) on JAK1 is under 1 µM; on JAK2, under 0.5 µM; against JAK3, under 0.5 µM.
With `O=C(NCCCO)c1cc(F)c(C(=O)c2c[nH]c3c(NC(=O)C4CC4)nccc23)c(F)c1` [Compound No. 62, 4-({7-[(Cyclopropylcarbonyl)amino]-1H-pyrrolo[2,3-c]pyridin-3-yl}carbonyl)-3,5-difluoro-N-(3-hydroxypropyl)benzamide], the figures for the IC50 on JAK1, against JAK2 and on JAK3 were under 1 µM, under 0.5 µM and under 0.5 µM, respectively.
In the case of `CN(C)CCNC(=O)c1cc(F)c(C(=O)c2c[nH]c3c(NC(=O)C4CC4)nccc23)c(F)c1` [Compound No. 63, 4-({7-[(Cyclopropylcarbonyl)amino]-1H-pyrrolo[2,3-c]pyridin-3-yl}carbonyl)-N-[2-(dimethylamino)ethyl]-3,5-difluorobenzamide], the 50% inhibitory concentration (IC50) on JAK1, against JAK2 and at JAK3 was under 0.5 µM each time.
As for `CCOCCCNC(=O)c1cc(F)c(C(=O)c2c[nH]c3c(NC(=O)C4CC4)nccc23)c(F)c1` [Compound No. 64, 4-({7-[(Cyclopropylcarbonyl)amino]-1H-pyrrolo[2,3-c]pyridin-3-yl}carbonyl)-N-(3-ethoxypropyl)-3,5-difluorobenzamide], the IC50 is under 0.5 µM against JAK1, under 1 µM at JAK2 and under 1 µM at JAK3.
Turning to `CNCc1cc(Cl)c(C(=O)c2c[nH]c3c(NC(=O)C4CC4)nccc23)c(Cl)c1` [Compound No. 66, N-(3-{2,6-Dichloro-4-[(methylamino)methyl]benzoyl}-1H-pyrrolo[2,3-c]pyridin-7-yl)cyclopropanecarboxamide], the 50% inhibitory concentration (IC50) against JAK1 was under 0.1 µM; on JAK2, under 0.1 µM; on JAK3, under 0.05 µM.
`CCNCc1cc(Cl)c(C(=O)c2c[nH]c3c(NC(=O)C4CC4)nccc23)c(Cl)c1` [Compound No. 67, N-(3-{2,6-Dichloro-4-[(ethylamino)methyl]benzoyl}-1H-pyrrolo[2,3-c]pyridin-7-yl)cyclopropanecarboxamide]: the figures for the IC50 on JAK1, on JAK2 and against JAK3 were under 0.1 µM, under 0.5 µM and under 0.1 µM, respectively.
For the compound `O=C(Nc1nccc2c1ccn2C(=O)c1c(Cl)cccc1Cl)C1CC1` [Compound No. 77, N-[1-(2,6-Dichlorobenzoyl)-1H-pyrrolo[3,2-c]pyridin-4-yl]cyclopropanecarboxamide], the values for the concentration for half-maximal inhibition (IC50) on JAK1, against JAK2 and on JAK3 were under 1 µM, under 0.5 µM and under 0.5 µM, respectively.
In the case of `N#Cc1cc(Cl)c(C(=O)n2ccc3c(NC(=O)C4CC4)nccc32)c(Cl)c1` [Compound No. 86, N-[1-(2,6-Dichloro-4-cyanobenzoyl)-1H-pyrrolo[3,2-c]pyridin-4-yl]cyclopropanecarboxamide], the IC50 against JAK1 is under 1 µM; against JAK2 it was under 0.5 µM; against JAK3, under 0.5 µM.

The term IC50 denotes the midpoint of a concentration-inhibition curve. A high value points to a need for much substance.

The values are drawn from patent publication US8980911B2, “Heterocyclic compounds as protein kinase inhibitors” (Daiichi Sankyo Company, Limited, priority 2011, dated 2015).
